{"source": "paper PMC4026528", "about": "(PLoS ONE, 2014)", "key": {"[1]": {"tested_on": "Wnt transcriptional activity in HT-1080 cells", "assay": "TCF Wnt reporter assay in HT-1080", "format": "cell-based, human", "conditions": "HT-1080, data not shown", "source_text": "(§1) The generation of TCF-Luciferase and TA-Renilla reporter plasmids as well as IC50 determination and calculation was reported previously. Human AXIN1 and WNT3A cDNAs were purchased from Origene as “transfection ready” plasmids. Dominant negative TCF4 cDNA was purchased from Upstate. Luciferase reporter of the nucleolin promoter (pNucL14) and FLAG-c-Myc expressing vector were from B. Amati. Luciferase reporter of the Hes5 promoter and Notch1-IC expressing vector were from I. Screpanti. Lentiviral vectors for inducible dominant negative TCF4 (rLV-EF1-tTS, rLV-EF1-rtTA and rLV-TRE-CMV-HA-TCF4DN) were purchased from Vectalys.\n(§2) Transfections were carried out using Lipofectamine 2000 (Invitrogen) according to the manufacturer’s instructions. Lentiviral expression of TCF-Luc, TA-Renilla, and the inducible dominant negative TCF4, were carried out following Vectalys instructions. For reporter assays, luciferase activities were performed as described previously."}, "[2]": {"tested_on": "Axin1/P-β-catenin co-localization in U2OS cells", "assay": "Axin1-GFP / P-β-catenin co-localization (confocal) in U2OS", "format": "cell-based, human", "conditions": "Wnt3a-CM, 10 µmol/L overnight", "protocol": "For co-localization experiments, U2OS cells were plated directly on coverslips coated with Fibronectin (Invitrogen). After transfections and incubation treatment of 24 h, cells were washed once with 1X PBS and then fixed with 4% paraformaldehyde for 15 min. After three washes in PBS, cells were permeabilized with 0.1% Triton X-100 for 10 min and washed three times with TBS (Bio-Rad). […] After 24 h, cells were washed three times with TBS and incubated for 1 h with the following secondary antibody Alexa Fluor 546-conjugated goat anti-rabbit IgG (Invitrogen, 1∶1000). Finally, coverslips were mounted onto glass slides using Prolong Gold Antifade reagent with DAPI (Invitrogen). Cells were examined under laser confocal fluorescence microscope with plan-apochromate 40x and 63x/1.4 oil-immersion objective (LSM 510 Meta, Axiovert 200, Zeiss). Co-localization experiments were performed in triplicate, and data/images presented are the average of at least 10 random fields for each independent experiment."}, "[3]": {"tested_on": "Wnt target gene mRNA in U2OS cells", "assay": "Quantitative RT-PCR of Wnt target genes in U2OS", "format": "cell-based, human", "procedure": "RNA extraction and quantitative RT-PCR (qPCR) expression analysis was performed as described previously. Gene expression analysis was performed using the human housekeeping gene RPL13A. Primers for the hAXIN2, hCDC25A, hc-MYC, hFZD4, hDVL2, hCSNK1G and hVEGF-A were the following: Fw: 5′-CAAGGGCCAGGTCACCAA-3′ Rv: 5′-CCCCCAACCCATCTTCGT-3′; Fw: 5′-[…]-3′ Rv: 5′-[…]-3′; Fw: 5′-GGCTCCTGGCAAAAGGTCA-3′ Rv: 5′-[…]-3′; Fw: 5′-[…]-3′ Rv: 5′-[…]-3′; Fw: 5′-[…]-3′ Rv: 5′-GTCTCCCCGCTCATTGCTC-3′; Fw: 5′-[…]-3′ Rv: 5′-[…]-3′; Fw: 5′-[…]-3′ Rv: 5′-[…]-3′."}, "[4]": {"tested_on": "Axin1 and β-catenin in G292 osteosarcoma cells", "assay": "Western blotting in G292", "format": "cell-based, human"}, "U2OS cells": {"tested_on": "U2OS cells", "assay": "Scratch assay (motility), U2OS", "format": "cell-based, human", "conditions": "20 hours", "procedure": "Soft agar assay and analysis was carried out as previously described. For scratch assay, confluent monolayer of U2OS and HT-1080 cells were subjected to scratch using a sterile pipette tip. Wounded monolayers were washed to remove debris and incubated with SEN461 at different concentrations for 20 hours. After the incubation period, images were taken under an Axiovert 200M (Zeiss) microscope equipped with a CCD camera, and the gap width was measured using MetaMorph 6.3 software (Universal Imaging Corp.) to calculate the area covered by cells (pixels unit). The tube formation assay was performed using growth factor-reduced Matrigel from BD (BD Biosciences; San Jose, CA, USA). Matrigel was thawed overnight at 4°C and was diluted (1∶1) with phenol red-free DMEM without serum. 100 µl of the diluted matrigel was used to coat the wells of a 96 well plate and was allowed to polymerize for 2 hours at 37°C. After equilibrating the gel with the complete growth medium, 15×10^3 cells were seeded in each well and incubated for 20 hours. The tube formation was monitored under a phase contrast microscope (Axiovert 200, Zeiss) and imaged using MetaMorph system (Universal Imaging Corp)."}, "[5]": {"tested_on": "Myc transcriptional activation in HEK293 cells", "assay": "Nucleolin promoter (pNucL14) luciferase reporter, HEK293", "format": "cell-based", "conditions": "HEK293, pNucL14 ± FLAG-c-Myc", "source_text": "as §1, §2"}, "[6]": {"assay": "Plasma and tumor exposure in HT-1080 xenograft mice", "format": "in vivo, female Crl:CD-1 nude mice", "conditions": "30 mg/kg BID PO", "procedure": "Female athymic nude mice (6 weeks old, Crl:CD-1 nude mice) were obtained from Charles River Italia (Calco, Italy). HT-1080 cells (6×10^∧6 cells) were resuspended in 200 µl of PBS 1X and injected subcutaneously in the right flank of the mice. Body weight and tumor measurements (using a digital caliper) were performed twice a week. Randomization was performed on day 12 after cell injection by comparing tumor mass and treatments started on day 13 when tumors reached a median size of 246 mm^3 (range = 230–268 mm^3). SEN461 was formulated in 0.5% w/v Methocel in MilliQ water and administered PO by oral gavage twice a day at 30 mg/kg for seven consecutive days in a total of 15 animals (n = 5 for each time point). Control animals (n = 5) were administered with the vehicle for the same time period. On treatment day 19, the mice were euthanized under inhalant anesthesia with isoflurane and tumor and blood samples were collected at three different time points (1–4–8 h, n = 5 animals for each time point) after last treatment and subjected to gene expression analysis and compound quantification. All mice were maintained in a conventional-specific-pathogen-free facility according to the NIH guidelines using an approved Animal Care and Use Committee protocol. During all the experimental time period, mice were housed (5 animals/cage) in individually ventilated solid floor plastic cages (Sealsafe Plus GR500, Tecniplast-Gazzada (VA) – Italy) using as bedding the Sawdust SCOBIS UNO by MUCEDOLA S.r.l (via Galileo Galilei 4, 20019 Settimo Milanese, Milano, Italy). Cages were maintained at a temperature of 20–24°C and humidity of 40–70% (Siemens Desigo Apparatus ver. 4.1) with 70 air changes/hour in the cage (10–15 air changes/hour in the room). Animals were subjected to a 12-hour light/12-hour dark cycle and have free access to a standard pelleted commercial laboratory diet (Certified Rodent irradiated 4RF21– Mucedola, Italy) and to municipal tap water, purified by reverse osmosis and autoclaved. The study was conducted in compliance with Decreto Legislativo January 27, 1992, N. 116, Gazzetta Ufficiale N. 40 February 18, 1992, (Directive N. […]) concerning protection of animals used for scientific purposes. The project was authorized by the Italian Institute of Health (48/2009/B). The experimental protocol was rewieved and approved by the Internal Ethical Committee."}, "HT-1080 xenograft tumor": {"tested_on": "HT-1080 xenograft tumor", "assay": "HT-1080 xenograft tumor growth", "format": "in vivo, female Crl:CD-1 nude mice", "conditions": "30 mg/kg twice a day PO, seven days", "procedure": "Female athymic nude mice (6 weeks old, Crl:CD-1 nude mice) were obtained from Charles River Italia (Calco, Italy). HT-1080 cells (6×10^∧6 cells) were resuspended in 200 µl of PBS 1X and injected subcutaneously in the right flank of the mice. Body weight and tumor measurements (using a digital caliper) were performed twice a week. Randomization was performed on day 12 after cell injection by comparing tumor mass and treatments started on day 13 when tumors reached a median size of 246 mm^3 (range = 230–268 mm^3). SEN461 was formulated in 0.5% w/v Methocel in MilliQ water and administered PO by oral gavage twice a day at 30 mg/kg for seven consecutive days in a total of 15 animals (n = 5 for each time point). Control animals (n = 5) were administered with the vehicle for the same time period. On treatment day 19, the mice were euthanized under inhalant anesthesia with isoflurane and tumor and blood samples were collected at three different time points (1–4–8 h, n = 5 animals for each time point) after last treatment and subjected to gene expression analysis and compound quantification. All mice were maintained in a conventional-specific-pathogen-free facility according to the NIH guidelines using an approved Animal Care and Use Committee protocol. […]"}, "[7]": {"tested_on": "Wnt transcriptional activity in DLD1 colorectal cancer cells", "assay": "TCF-Luciferase/TA-Renilla Wnt reporter assay in DLD1", "format": "cell-based", "conditions": "DLD1, transiently transfected", "source_text": "as §1, §2"}}, "note": "Values joined by “and” are separate entries in the source; they are usually repeats but may differ in a detail not shown here. Equal entries are not always repeated.", "data": [{"smiles": "COCC(=O)N1CCN(C(=O)C2CCC(Cn3c(=O)c4cc(OC)ccc4n(C)c3=O)CC2)CC1", "note": "(stereo not drawn) [SEN461]", "values": [{"measurement": "Wnt transcriptional modulation (TCF reporter)", "setting": "[1]", "result": "did not find any Wnt transcriptional modulation"}, {"measurement": "phosphorylated β-catenin associated with Axin1 (co-localization)", "setting": "[2]", "result": "increase in the amount of phosphorylated β-catenin associated with Axin1"}, {"measurement": "CSNK1G mRNA", "setting": "[3]; 10 µmol/L", "result": "down-modulation"}, {"measurement": "DVL2 mRNA", "setting": "[3]; 10 µmol/L", "result": "down-modulation"}, {"measurement": "FZD4 mRNA", "setting": "[3]; 10 µmol/L", "result": "down-modulation"}, {"measurement": "AXIN2 mRNA", "setting": "[3]; 10 µmol/L, 2 or 24 h", "result": "comparable down-regulation"}, {"measurement": "CDC25A mRNA", "setting": "[3]; 10 µmol/L, 2 or 24 h", "result": "comparable down-regulation"}, {"measurement": "AXIN2 mRNA induced by Wnt3a CM", "setting": "[3]; Wnt3a CM stimulation", "result": "inhibited"}, {"measurement": "c-MYC mRNA", "setting": "[3]; overnight treatment", "result": "unaffected"}, {"measurement": "Axin protein level", "setting": "[4]", "result": "Axin stabilization"}, {"measurement": "β-catenin level", "setting": "[4]", "result": "β-catenin down-modulation"}, {"measurement": "cellular motility (two-dimensional scratch assay)", "setting": "U2OS cells", "result": "neither U2OS nor HT-1080 cells showed inhibition of motility"}, {"measurement": "Myc mediated activation / basal activity of nucleolin reporter", "setting": "[5]", "result": "did not affect"}, {"measurement": "Ctumor/plasma", "setting": "[6]; day 7, 1 h", "result": 0.23}, {"measurement": "Cplasma", "setting": "[6]; day 7, 1 h after last dose", "result": "6.6 µmol/L and 6.62 ± 2.08 µmol/L"}, {"measurement": "Ctumor", "setting": "[6]; day 7, 1 h after last dose", "result": "1.5 µmol/L and 1.54 ± 0.35 µmol/L"}, {"measurement": "Ctumor/plasma", "setting": "[6]; day 7, 4 h", "result": 0.23}, {"measurement": "Cplasma", "setting": "[6]; day 7, 4 h after last dose", "result": "2.57 ± 0.08", "unit": "µmol/L"}, {"measurement": "Ctumor", "setting": "[6]; day 7, 4 h after last dose", "result": "0.58 ± 0.08", "unit": "µmol/L"}, {"measurement": "Ctumor/plasma", "setting": "[6]; day 7, 8 h", "result": 0.17}, {"measurement": "Cplasma", "setting": "[6]; day 7, 8 h after last dose", "result": "0.57 ± 0.19", "unit": "µmol/L"}, {"measurement": "Ctumor", "setting": "[6]; day 7, 8 h after last dose", "result": "0.10 ± 0.02", "unit": "µmol/L"}, {"measurement": "antitumor activity (tumor growth)", "setting": "HT-1080 xenograft tumor", "result": "tumor stasis effect"}, {"measurement": "Wnt transcriptional activity (TCF-Luciferase/TA-Renilla)", "setting": "[7]", "result": "Concentration dependent inhibition of Wnt transcriptional activity"}]}]}
